Results as given in patent US8614179B2, “Antibacterial combination therapy for the treatment of gram positive bacterial infections” (E-Therapeutics PLC, priority 2008, dated 2013).
Read-outs that look alike come from different tables or passages of the source.

What was measured:
[1] = test system: Enterococcus faecium (VRE); assay: microbe, parasite or virus in culture; format: cell-based
Description: (§1) In example experiments miconazole nitrate, econazole nitrate and clotrimazole were dissolved in DMSO. Colistin, D-cycloserine, fosfomycin and polymixin B were dissolved in water. Nisin was suspended at 10 mg/mL in 0.02 M HCl, and the supernatant fraction following centrifugation at 10,000 g for 10 mins was used in the following experiments.
(§2) Other solvents that may be used include caster oil, pyridine, and 0.9% saline. For IV administration agents may be solubilised in polyethoxylated caster oil, or cyclodextrins such as sulfobutylether7-βcyclodextrin or hydroxypropyl-β-cyclodextrin and lactic acid. Minimum inhibitory concentrations (MICs) of a range of clinical and control bacterial organisms were measured according to BSAC (British Society for Antimicrobial Chemotherapy) guidelines (Andrews 2001), for single agents. The method of determining MICs of imidazole with colistin, D-cycloserine, fosfomycin, polymixin B, or nisin is described briefly as follows. MICs were measured by agar dilution. Kill curves were performed in accordance with the methods of Garrison and Nuemiller, 2007. Briefly kill profiles were generated by logarithmically plotting mean CFU/mL data over time. Total logarithmic reductions in bacterial counts were determined by subtracting 24 h CFU/mL values from starting inocula.
(§3) Stock solutions were prepared at concentrations of 1000 mg/L and 100 mg/L. To determine the MIC of miconazole, the appropriate amount of each stock solution were added to separate Petri dishes give a range of final concentrations (after the addition of 20 mL molten agar): from 0.12 to 32 mg/L. To determine the MICs of miconazole with the specific agent active on a bacterial cell surface, these concentrations of miconazole were used in addition to a fixed sub-inhibitory amount of the agent active on a bacterial cell surface. […] Volumes (20 mL) of cooled molten IST agar (oxoid) was added to each Petri dish and mixed by swirling. After drying, the plates were stored at 4° C. and protected from light. Plates were used on the day of preparation.
(§4) The test organisms were grown overnight in 5 mL IST broth. Using a dilution in 0.9% saline of 1:100, the appropriate agar plates were inoculated using a multipoint inoculator.
(§5) Agar plates and microtitre plates were incubated at 37° C. in air for 18-20 hours.
(§6) The MIC is the minimum amount of an antibiotic at which there is no visible growth of bacteria. Tiny single colonies or faint hazes were not counted as growth. Synergy was reported if the inhibitory effect of the drugs in combination were greater than the sum of the inhibitory effects of each drug singly. The concentration of miconazole, with or without the cell membrane or cell wall active agent, capable of inhibiting the growth of 50% and 90% of the strains tested is reported as the MIC50 and MIC90 respectively. The range of MICs for each group of bacterial strains is also reported.

[2] = test system: VISA; assay: microbe, parasite or virus in culture; format: cell-based; conditions: Staphylococcus aureus
Description: as §1, §2, §3, §4, §5, §6

[3] = test system: Staphylococcus epidermidis; assay: MIC by agar dilution, Staphylococcus epidermidis; format: cell-based
Description: as §2, §3
(§7) The test organisms were grown overnight in 5 mL IST broth. Using a dilution in 0.9% saline of 1:100, the appropriate agar plates were inoculated using a multipoint inoculator. […]
(§8) The MIC is the minimum amount of an antibiotic at which there is no visible growth of bacteria. Tiny single colonies or faint hazes were not counted as growth. […]

[4] = test system: Enterococcus faecalis (VRE); assay: MIC by agar dilution, Enterococcus faecalis (VRE); format: cell-based
Description: as §2, §3, §7, §8

[5] = test system: Escherichia coli; assay: MIC by agar dilution, Escherichia coli; format: cell-based
Description: as §2, §3, §7, §8

[6] = test system: Pseudomonas aeruginosa; assay: MIC by agar dilution, Pseudomonas aeruginosa; format: cell-based
Description: as §2, §3, §7, §8

[7] = test system: MRSA AND VRE; assay: MIC by agar dilution, MIC50/MIC90/range over MRSA and VRE strain panel; format: cell-based, Staphylococcus aureus; Enterococci
Description: In example experiments miconazole nitrate, econazole nitrate and clotrimazole were dissolved in DMSO. Colistin, D-cycloserine, fosfomycin and polymixin B were dissolved in water.
as §2, with “The method of determining MICs of imidazole with colistin, D-cycloserine, fosfomycin, polymixin B, or nisin is described briefly as follows.” left out
as §3, §7
as §6, with “Synergy was reported if the inhibitory effect of the drugs in combination were greater than the sum of the inhibitory effects of each drug singly.” left out

[8] = in vivo, cited from earlier work
[9] = ATCC 4147 / VRE, Table 2, strain E15 VanA ATCC 4147, read-out: MIC
[10] = NCTC 7171 / VRE, Table 2, strain NCTC 7171, read-out: MIC
[11] = VRE, Table 2, strain E19 UAA/522 VanB, read-out: MIC
[12] = VRE, Table 2, strain VanR B145344C LFE, read-out: MIC
[13] = Table 2, strain USA/VISA 5827, read-out: MIC
[14] = Table 2, strain USA/VISA 5836, read-out: MIC
[15] = Table 2, strain VISA 3900 UK, read-out: MIC

OC(Cn1cncn1)(Cn1cncn1)c1ccc(F)cc1F [Fluconazole]
> 128 µg/mL: MIC ([1]; ATCC 4147 / VRE, Table 2, strain E15 VanA ATCC 4147) | MIC ([1]; NCTC 7171 / VRE, Table 2, strain NCTC 7171) | MIC ([1]; VRE, Table 2, strain E19 UAA/522 VanB) | MIC ([1]; VRE, Table 2, strain VanR B145344C LFE) | MIC ([2]; Table 2, strain USA/VISA 5827) | MIC ([2]; Table 2, strain USA/VISA 5836) | MIC ([2]; Table 2, strain VISA 3900 UK) | MIC ([3]; ATCC1228) | MIC [4] | MIC ([5]; NCTC10418) | MIC ([6]; NCTC10662)

CC(=O)N1CCN(c2ccc(OCC3COC(Cn4ccnc4)(c4ccc(Cl)cc4Cl)O3)cc2)CC1 (stereo not drawn) [Ketoconazole]
64 µg/mL: MIC [2, 13] | MIC [2, 14] | MIC [2, 15] | MIC ([3]; ATCC1228)
> 256 µg/mL: MIC [4] | MIC ([5]; NCTC10418) | MIC ([6]; NCTC10662)
16 µg/mL: MIC [1, 9]
128 µg/mL: MIC [1, 10] | MIC [1, 11] | MIC [1, 12]

polymixin B
no inhibitory effect: inhibitory effect on the growth of the bacterial strains tested ([7]; polymixin B alone at 20 mg/L)

Clc1ccccc1C(c1ccccc1)(c1ccccc1)n1ccnc1 [Clotrimazole, 1-[(2-Chlorophenyl)diphenylmethyl]-1H-imidazole]
well absorbed: absorption following oral administration [8]
around 3 hours: half-life ([8]; human, po)

N[C@@H]1CONC1=O [D-cycloserine]
no inhibitory effect: inhibitory effect on the growth of the bacterial strains tested ([7]; D-cycloserine alone at 10 mg/L)

colistin
no inhibitory effect: inhibitory effect on the growth of the bacterial strains tested ([7]; colistin alone at 5 mg/L)

c1ccc(-c2ccc(C(c3ccccc3)n3ccnc3)cc2)cc1 (stereo not drawn) [Bifonazole]
> 128 µg/mL: MIC [1, 9] | MIC [1, 10] | MIC [1, 11] | MIC [1, 12] | MIC [2, 13] | MIC [2, 14] | MIC [2, 15] | MIC ([3]; ATCC1228, Table 2, strain ATCC 1228, read-out: MIC) | MIC ([4]; Table 2, strain E8 VanA, read-out: MIC) | MIC ([5]; NCTC10418, Table 2, strain NCTC 10418, read-out: MIC) | MIC ([6]; NCTC10662, Table 2, strain NCTC 10662, read-out: MIC)

C[C@@H]1O[C@@H]1P(=O)(O)O [fosfomycin]
no inhibitory effect: inhibitory effect on the growth of the bacterial strains tested ([7]; fosfomycin alone at 5 mg/L)
